According to patent US20090074876A1, “PEPTIDE COMPOSITION AND A METHOD OF PROMOTING CARTILAGE FORMATION” (Acologix, Inc., priority 2007, published 2009):
Where a SMILES comes first, the peptide text is derived from it.

Key:
[1] = tested on: 8 mm diameter defect in the rat parietal bones; test: rat calvaria defect model, bone bridging; type: in vivo; conditions: collagen sponge in defect, daily s.c. injections for 6 days, 28 days post-surgery, histology qualitative score; vs saline and AC-100
Protocol: AC-101, 102, and 103 were tested for their defect bridging activities as compared to AC-100.
As a next step, necessity of RGD integrin-binding motif (SEQ ID NO:42) and SGDG glycosaminoglycan attachment motif (SEQ ID NO:43) to the bone formation activities was examined by testing the selected peptides synthesized in EXAMPLE 1 in a rat calvaria defect model. In this model an 8 mm diameter defect is created in the rat parietal bones and a collagen sponge cut to size is inserted into the defect. The test article is soaked into the sponge. Sub-cutaneous injections are administered daily for 6 days post-surgery. After 28 days post-surgery the rats are euthanized and the calvariae collected. The degree of bone bridging was determined by histology analysis using a qualitative scoring system. The tested peptides were SEQ ID NO: 22, 23, and 24, which were also encoded as AC-101, AC-102, and AC-103, respectively.
AC-100 that includes both the RGD integrin-binding motif and the SGDG glycosaminoglycan attachment motif was used as a positive control at the optimal dose.

[2] = tested on: human mesenchymal stem cells (hMSC); test: proliferation assay with human mesenchymal stem cells, tritiated thymidine incorporation; type: cell-based; conditions: as compared to the vehicle
Protocol: The peptide of SEQ ID NO:34 was tested for its proliferation activity on human mesenchymal stem cells as compared to CMP-2 and IGF-1.
The same protocol and positive controls were used in this experiment.
SEQ ID NO:34 was selected for this experiment since the amino acid sequence of this peptide was derived from the corresponding region in rat and mouse MEPE where AC-100 was derived from human MEPE. Furthermore, as compared to all other known mammalian corresponding regions to AC-100, it is the least homologous to AC-100 (the human sequence).

[3] = tested on: osteochondral defect in goat stifle joint; conditions: in vivo
Protocol: In this study, the use of two different concentrations (See Table 1) of AC-100 in conjunction with a collagen sponge and a control with just the collagen sponge was implanted to evaluate the efficacy of AC-100 in repair of bone and cartilage (osteochondral) defects. The implants were intended to serve as an osteochondral allograft for cellular and matrix ingrowth. Efficacy to repair cartilage was assessed using gross and histological examination of the repair tissue. The primary objective was to determine whether AC-100 modifies and/or improves the healing of the osteochondral defect as compared to the study control group and the natural progression of historical controls using this model. This report describes the in vivo, gross and histological findings at the 12 and 24 weeks time points.
A single full-thickness chondral defects were created in the right hind leg stifle joint. The lesion site was located in the anterior medial femoral condyle. The basic surgical procedure was identical for all subjects. All surgeries were performed under strict asepsis. […]
Postoperative checks were made for any animal displaying signs of postoperative discomfort. […] All treatments were recorded in the appropriate study documentation. […]
Animals were humanely sacrificed at Day 84 (12 weeks) or Day 168 (24 weeks) postoperatively. Bodyweights were recorded immediately prior to sacrifice. […]

Compound | degree of bone bridging [1] | proliferation activities of the hMSC by tritiated-thymidine incorporation [2] | also measured
TDLQEDGRNDISPFGDGSQPFKD [AC-103] | improved versus saline treatment alone and was comparable to the activity of AC-100 |  | 
PDLLVRGDNDVPPFSGDGQHFMH [SEQ ID NO:34] |  | Significant proliferation activities | 
TDLQERGDNDISPFGDGSQPFKD [AC-102] | improved versus saline treatment alone and was comparable to the activity of AC-100 |  | 
CC[C@H](C)[C@H](NC(=O)[C@H](CC(=O)O)NC(=O)[C@H](CC(N)=O)NC(=O)[C@H](CC(=O)O)NC(=O)CNC(=O)[C@H](CCCNC(=N)N)NC(=O)[C@H](CCC(=O)O)NC(=O)[C@H](CCC(N)=O)NC(=O)[C@H](CC(C)C)NC(=O)[C@H](CC(=O)O)NC(=O)[C@@H](N)[C@@H](C)O)C(=O)N[C@@H](CO)C(=O)N1CCC[C@H]1C(=O)N[C@@H](Cc1ccccc1)C(=O)N[C@@H](CO)C(=O)NCC(=O)N[C@@H](CC(=O)O)C(=O)NCC(=O)N[C@@H](CCC(N)=O)C(=O)N1CCC[C@H]1C(=O)N[C@@H](Cc1ccccc1)C(=O)N[C@@H](CCCCN)C(=O)N[C@@H](CC(=O)O)C(N)=O [AC-100] (H-TDLQERGDNDISPFSGDGQPFKD-NH2) |  |  | adverse events [3]: No adverse events were identified; inflammatory response in sections [3]: no evidence of an inflammatory response
IGF-1: Insulin-like Growth Factor-1, positive control in hMSC proliferation assay |  | Significant proliferation activities | 
TDLQEDGRNDISPFSGDGQPFKD [AC-101] | improved versus saline treatment alone and was comparable to the activity of AC-100 |  | 
